Assay results taken from patent US20040057943A1, “Probiotic strains, a process for the selection of them, compositions thereof, and their use” (priority 2002, published 2004).

System: Salmonella typhmurium and Escherichia coli
Test: Production of antimicrobial metabolites, agar well diffusion assay
Assay type: cell-based
Details: pH 4.5; data not shown
Method: The probiotic strains of this invention were assessed for their capability to produce antimicrobial metabolites using an agar well diffusion assay. MRS agar plates containing 10^6 cfu/ml of different pathogenic bacteria strain (Salmonella typhmurium and Escherichia coli) were prepared. Wells, with a diameter of 5 mm, where then cut in the agar using a sterile cork-borer. Then, 50 μl of a 2 fold concentrate supernatant of each probiotic strain culture were added to the wells and allowed to diffuse into the agar during a 2 hours preincubation period at 4° C., followed by aerobic incubation of the plates at 37° C. for 16-18 hours. The antimicrobial activity of each supernatant was considered high if the diameter of the inhibition hallo for both pathogenic bacteria strains was >12, moderate between 8 and 12, and slight <8 (FIG. 11)
Moreover, it was also tested if the antimicrobial activity of the supernatants was due to a antimicrobial substance or to the production of metabolic acids. […] It was also tested the antimicrobial capabilities of supernatants obtained from bacterial cultures using glucose or lactose as a carbohydrate source.

Row | SMILES | Inhibitory effect of a dilution of metabolic acid on growth of Salmonella or E. coli
1 | CC(=O)O [acetic] | None of these situations inhibited the growth
2 | CCCC(=O)O [butyric, butyric acid] | None of these situations inhibited the growth
